Source: patent US10703800B2, “Cell culture medium” (La Jolla Biologics, Inc., priority 2016, dated 2020)
Like-named read-outs stand apart in the source and are kept apart here.

How the values were obtained:
CHO.DXB11 cells [1] = details: high ethanol 0.144% v/v vs low ethanol 0.072% v/v fed daily, 14 day fed-batch, mAb 1
Description: (§1) Antibody production was performed as described above for mAb 1.
(§2) Ethanol was fed daily 0.072% (Low Ethanol) or 0.144% (High Ethanol) v/v. Calculated cumulative cell culture concentration (concentration in vessel at time of cell harvest) of ethanol ranged between 0.79%-1.58% v/v. Bioreactor physical conditions were maintained at a pH of 7.0±0.2, dissolved oxygen maintained at 30% of air saturation, temperature of 35° C. during logarithmic cellular growth phase and shifted to 31° C. during cellular production phase (temperature was shifted one day before max viable cell density was reached). Basal and feed media were fully synthetic and chemically defined containing no animal derived components.

CHO.DG44 derived clone = details: higher ethanol concentrations (0.05%, 0.15% v/v fed daily) vs baseline, 13 day fed-batch, mAb 2
Description: Antibody production was performed as described above for mAb 2. This cell line is a CHO.DG44 derived clone producing mAb 2.
(§3) Ethanol was fed daily between 0.0% and 0.15% v/v. Calculated cumulative cell culture concentration (concentration in vessel at time of cell harvest) of ethanol ranged between 0.0%-1.35% v/v. Bioreactor physical conditions were maintained at a pH of 7.0±0.1 shifted to 6.8±0.1, dissolved oxygen maintained at 30% air saturation and a constant temperature of 35° C. Basal and feed media were fully synthetic and chemically defined containing no animal derived components.

CHO.DXB11 cells [2] = details: 12 day fed-batch, prediction profile
Description: Ethanol was used in design of experiments (DOE) created with custom DOE design using JMP statistical software (World Wide Web.jmp.com/en_us/home.html). A response model was created using standard least squares to determine the significance of response from ethanol supplementation. Potential interactions with other supplemented components were also considered. Ethanol was fed daily between 0.0% and 0.1% using microscale bioreactors. FIG. 9 is a prediction response profile for Titer, Man5%, G0%, Acidic % and Basic % species while the change in response values for each of these is shown depicted in Table 4 below.

CHO.DXB11 cells [3] = details: 14 day fed-batch
Description: as §1
as §3, with “0.018%” for “0.15%”, “0.0%-0.2%” for “0.0%-1.35%”, “7.0±0.2” for “7.0±0.1”
The same basal media was used in formulation #1 and #2. Feed formulation #1 and #2 were similar in composition containing the same type and amount of amino acids and vitamins. Salt and metal ion type and concentration were slightly varied. Both feeds were fully synthetic and chemically defined containing no animal derived components.

CHO.DXB11 derived clone = details: ethanol 0.057% v/v fed daily vs baseline, 12 day fed-batch, mAb1
Description: To determine if ethanol altered mAb properties it was incorporated into fully defined and synthetic feed media and fed daily in a fed-batch process using micro—(15 mL working volume) bioreactors.
as §1
Cell line A is a CHO.DXB11 derived clone producing mAb 1. Cell line B is a different CHO.DXB11 derived clone producing mAb1. The expression cassette is identical between the two cell lines.
as §2, with “0.0%” for “0.072% (Low Ethanol)”, “0.057% v/v using microscale bioreactors and two different cellular clones producing mAb1.” for “0.144% (High Ethanol) v/v.”, “0.0%-0.51%” for “0.79%-1.58%”, “oxygen” for “oxygen maintained”, “30%” for “30% of”, “saturation and a” for “saturation,”

CHO.DXB11 cells [4] = details: fed once daily, range 0.1% to 0.4% v/v
Description: Ethanol cytotoxicity to CHO.DXB11 cells was determined by daily feed dosing. 4 mL of CHO cells at 3 e6/mL cellular density were seeded into 6 well deep plates, mixed at 150 RPM, and fed once daily with ethanol ranging from 0.1% to 0.4% volume to volume (v/v).

CHO.DXB11 cells [5] = assay: Fatty acid cytotoxicity, daily feed dosing; details: solubilized in ethanol, fed once daily, 10 μM to 160 μM
Description: Fatty acid cytotoxicity to CHO.DXB11 cells was determined by daily feed dosing. 4 mL of CHO cells at 4 e^6/mL cellular density were seeded into 6 well deep plates, mixed at 150 RPM, and daily fed fatty acids. Fatty acids were solubilized in ethanol and fed once daily to increase well plate concentration from 10 μM to 160 μM.

[6] = Formulation 1, ethanol 0.018% v/v fed daily vs baseline lacking ethanol
[7] = Formulation 2, ethanol 0.018% v/v fed daily vs baseline lacking ethanol

`CCO` [Ethanol, ethanol] was tested, and the “Effect on G0 glycan species” value (CHO.DXB11 cells [1]) was “less”, the “Effect on G1F glycan species” value (CHO.DXB11 cells [1]) was “greater” and the “Effect on G2F glycan species” value (CHO.DXB11 cells [1]) was “greater”. The “Effect on Man5 glycan species” value (CHO.DXB11 cells [1]) was “less”, the “Effect on high molecular weight species” value (CHO.DXB11 cells [1]) was “less” and the “Effect on low molecular weight species” value (CHO.DXB11 cells [1]) was “less”. For the same molecule, the “Effect on G0F glycan species” value (CHO.DG44 derived clone) was “decreased”, the “Effect on G0 glycan species” value (CHO.DG44 derived clone) was “increased” and the “Effect on G1F glycan species” value (CHO.DG44 derived clone) was “increased”. The “Effect on G2F glycan species” value (CHO.DG44 derived clone) was “increased”, the “Effect on Man5 glycan species” value (CHO.DG44 derived clone) was “decreased” and the “Effect on high molecular weight species” value (CHO.DG44 derived clone) was “decreased”. The “Change in Acidic %” value (CHO.DXB11 cells [2]; 0.05% v/v ethanol fed daily) was −4.7%, the “Change in Basic %” value (CHO.DXB11 cells [2]; 0.05% v/v ethanol fed daily) was “+1.0%” and the “Change in G0%” value (CHO.DXB11 cells [2]; 0.05% v/v ethanol fed daily) was −0.7%. For the same molecule, the “Change in Man5%” value (CHO.DXB11 cells [2]; 0.05% v/v ethanol fed daily) was −1.9%, the “Change in Titer” value (CHO.DXB11 cells [2]; 0.05% v/v ethanol fed daily) was “+2.0%” and the “Change in Acidic %” value (CHO.DXB11 cells [2]; 0.1% v/v ethanol fed daily) was −9.3%. For the same molecule, the “Change in Basic %” value (CHO.DXB11 cells [2]; 0.1% v/v ethanol fed daily) was “+1.9%”, the “Change in G0%” value (CHO.DXB11 cells [2]; 0.1% v/v ethanol fed daily) was −1.3% and the “Change in Man5%” value (CHO.DXB11 cells [2]; 0.1% v/v ethanol fed daily) was −3.8%. The “Change in Titer” value (CHO.DXB11 cells [2]; 0.1% v/v ethanol fed daily) was “+3.9%”, the “Effect on G0F glycan species” value (CHO.DXB11 cells [3]; [6]) was “less” and the “Effect on G0 glycan species” value (CHO.DXB11 cells [3]; [6]) was “less”. For the same molecule, the “Effect on G1F glycan species” value (CHO.DXB11 cells [3]; [6]) was “increased”, the “Effect on G2F glycan species” value (CHO.DXB11 cells [3]; [6]) was “increased” and the “Effect on Man5 glycan species” value (CHO.DXB11 cells [3]; [6]) was “increased”. For the same molecule, the “Effect on acidic charge variants” value (CHO.DXB11 cells [3]; [6]) was “less”, the “Effect on basic charge variants” value (CHO.DXB11 cells [3]; [6]) was “increased” and the “Effect on G0F glycan species” value (CHO.DXB11 cells [3]; [7]) was “greater”. The “Effect on G0 glycan species” value (CHO.DXB11 cells [3]; [7]) was “decreased”, the “Effect on G1F glycan species” value (CHO.DXB11 cells [3]; [7]) was “decreased” and the “Effect on G2F glycan species” value (CHO.DXB11 cells [3]; [7]) was “greater”. For the same molecule, the “Effect on Man5 glycan species” value (CHO.DXB11 cells [3]; [7]) was “decreased”, the “Effect on acidic charge variants” value (CHO.DXB11 cells [3]; [7]) was “higher” and the “Effect on G1F % glycan species” value (CHO.DXB11 derived clone; both cell lines (A and B)) was “increased”. For the same molecule, the “Effect on G2F % glycan species” value (CHO.DXB11 derived clone; both cell lines (A and B)) was “increased”, the “Effect on Man5% glycan species” value (CHO.DXB11 derived clone; both cell lines (A and B)) was “decreased” and the “Effect on relative amount of acidic charge variants” value (CHO.DXB11 derived clone; both cell lines (A and B)) was “decreased”. For the same molecule, the “Effect on relative percentage of basic charge variants” value (CHO.DXB11 derived clone; both cell lines (A and B)) was “slightly increasing”, the “Effect on G0% glycan species” value (CHO.DXB11 derived clone; cell lines A and B) was “varied with respect to the cell line” and the “Effect on G0F % glycan species” value (CHO.DXB11 derived clone; cell lines A and B) was “varied with respect to the cell line”. The “Daily ethanol feeding above which cell growth rate and cell viability were negatively affected” value (CHO.DXB11 cells [4]) was “exceeded 0.3 % v/v”.

In the case of `CC/C=C\C/C=C\C/C=C\CCCCCCCC(=O)O` [linolenic acid], the “Daily feeding concentration at which the supplement became toxic” value (CHO.DXB11 cells [5]) is reported as “around 40 μM”.
